Measured values: patent US20260207602A1, “EGFR INHIBITORS” (Blueprint Medicines Corporation, priority 2022, published 2026)
pIC50: −log10 of the molar value.

What was measured:
EGFR L858R = target: T1, EGFR L858R (Homo sapiens, UniProt P00533, L858R); experiment: Biochemical EGFR inhibition assay (Caliper mobility shift), EGFR L858R; details: biochemical Caliper mobility shift assay, EGFR L858R enzyme; read-out: Enz EGFR L858R IC50
T1 construct: purchased SignalChem E10-122BG
How it was run: (§1)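 Apparent IC50 from Caliper separation of phospho-peptide from substrate. Conditions: 2.5 µM 5-FAM peptide, 1.0 mM ATP or ATP Km, pH 7.5 HEPES buffer, room temperature, 10–20% conversion, EDTA stop.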

EGFR (d746-750) = target: T2, EGFR (d746-750) (Homo sapiens, UniProt P00533, DEL746-750); experiment: Biochemical EGFR inhibition assay (Caliper mobility shift), EGFR (d746-750); details: biochemical Caliper mobility shift assay, EGFR Exon 19-del enzyme; read-out: Enz EGFR Exon 19-del IC50
T2 construct: purchased SignalChem E10-122JG
T2 sequence (P00533 with tags, fused parts or gaps DEL746-750 limits assumed): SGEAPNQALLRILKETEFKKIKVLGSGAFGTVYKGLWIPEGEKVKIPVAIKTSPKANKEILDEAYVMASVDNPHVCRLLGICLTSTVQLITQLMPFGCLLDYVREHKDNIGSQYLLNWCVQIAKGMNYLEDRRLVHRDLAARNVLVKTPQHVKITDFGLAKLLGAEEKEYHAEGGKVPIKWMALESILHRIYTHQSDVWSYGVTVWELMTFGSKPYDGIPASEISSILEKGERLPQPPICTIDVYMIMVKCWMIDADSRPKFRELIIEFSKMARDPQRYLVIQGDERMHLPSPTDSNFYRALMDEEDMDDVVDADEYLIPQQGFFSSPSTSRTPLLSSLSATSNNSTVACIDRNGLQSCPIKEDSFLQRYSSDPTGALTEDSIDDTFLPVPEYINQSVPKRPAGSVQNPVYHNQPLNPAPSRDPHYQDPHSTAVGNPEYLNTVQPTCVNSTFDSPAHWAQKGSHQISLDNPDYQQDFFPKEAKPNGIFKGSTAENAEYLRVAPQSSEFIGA
How it was run: as §1

[1] = target: intracellular phosphorylation of EGFR (Tyr1068) in PC-9 cells (Homo sapiens, UniProt P00533, DEL746-750); experiment: PC-9 pEGFR AlphaLISA assay; format: cell-based; details: 4 hours incubation, read-out: Phos EGFR PC9 IC50
Sequence of intracellular phosphorylation of EGFR (Tyr1068) in PC-9 cells (P00533 with tags, fused parts or gaps DEL746-750): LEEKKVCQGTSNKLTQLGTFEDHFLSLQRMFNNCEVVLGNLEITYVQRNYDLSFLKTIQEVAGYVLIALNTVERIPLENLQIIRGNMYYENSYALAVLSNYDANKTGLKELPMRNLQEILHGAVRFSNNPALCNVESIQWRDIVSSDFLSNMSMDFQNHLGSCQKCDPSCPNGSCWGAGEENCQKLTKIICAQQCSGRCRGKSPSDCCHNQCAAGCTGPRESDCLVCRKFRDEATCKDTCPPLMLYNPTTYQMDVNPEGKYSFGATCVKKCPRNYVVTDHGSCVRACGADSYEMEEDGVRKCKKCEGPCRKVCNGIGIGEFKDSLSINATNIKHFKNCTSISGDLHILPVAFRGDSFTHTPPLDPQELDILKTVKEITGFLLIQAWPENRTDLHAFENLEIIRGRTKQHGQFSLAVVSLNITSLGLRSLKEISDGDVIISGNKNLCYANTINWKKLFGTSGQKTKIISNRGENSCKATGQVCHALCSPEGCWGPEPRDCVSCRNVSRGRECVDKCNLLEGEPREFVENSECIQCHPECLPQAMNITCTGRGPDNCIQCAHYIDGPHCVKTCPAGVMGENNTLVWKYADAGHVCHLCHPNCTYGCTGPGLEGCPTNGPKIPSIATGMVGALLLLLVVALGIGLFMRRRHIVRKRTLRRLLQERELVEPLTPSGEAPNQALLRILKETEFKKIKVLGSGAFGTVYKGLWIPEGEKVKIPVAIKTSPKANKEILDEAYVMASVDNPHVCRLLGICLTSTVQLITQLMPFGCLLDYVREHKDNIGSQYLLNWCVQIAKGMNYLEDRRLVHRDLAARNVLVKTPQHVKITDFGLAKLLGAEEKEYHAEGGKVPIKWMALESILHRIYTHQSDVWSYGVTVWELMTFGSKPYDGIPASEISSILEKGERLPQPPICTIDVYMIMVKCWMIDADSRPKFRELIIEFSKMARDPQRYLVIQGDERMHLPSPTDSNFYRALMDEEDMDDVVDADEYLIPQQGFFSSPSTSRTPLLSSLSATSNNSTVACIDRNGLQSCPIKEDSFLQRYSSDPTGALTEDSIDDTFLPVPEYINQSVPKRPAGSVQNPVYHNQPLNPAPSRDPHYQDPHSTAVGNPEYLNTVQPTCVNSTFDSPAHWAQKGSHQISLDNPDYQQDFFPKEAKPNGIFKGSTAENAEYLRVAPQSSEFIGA
How it was run: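 PC-9 cells (EGFR del746-750) in phenol-free DMEM/10% FBS, adhered overnight, then exposed to 10-point 4-fold compound dilutions for 4 h at 37 °C. Lysates assayed for pEGFR Tyr1068 by AlphaLISA SureFire Ultra; IC50 from percent pEGFR inhibition vs log concentration.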

T1 sequence (P00533 25-1210 L858R): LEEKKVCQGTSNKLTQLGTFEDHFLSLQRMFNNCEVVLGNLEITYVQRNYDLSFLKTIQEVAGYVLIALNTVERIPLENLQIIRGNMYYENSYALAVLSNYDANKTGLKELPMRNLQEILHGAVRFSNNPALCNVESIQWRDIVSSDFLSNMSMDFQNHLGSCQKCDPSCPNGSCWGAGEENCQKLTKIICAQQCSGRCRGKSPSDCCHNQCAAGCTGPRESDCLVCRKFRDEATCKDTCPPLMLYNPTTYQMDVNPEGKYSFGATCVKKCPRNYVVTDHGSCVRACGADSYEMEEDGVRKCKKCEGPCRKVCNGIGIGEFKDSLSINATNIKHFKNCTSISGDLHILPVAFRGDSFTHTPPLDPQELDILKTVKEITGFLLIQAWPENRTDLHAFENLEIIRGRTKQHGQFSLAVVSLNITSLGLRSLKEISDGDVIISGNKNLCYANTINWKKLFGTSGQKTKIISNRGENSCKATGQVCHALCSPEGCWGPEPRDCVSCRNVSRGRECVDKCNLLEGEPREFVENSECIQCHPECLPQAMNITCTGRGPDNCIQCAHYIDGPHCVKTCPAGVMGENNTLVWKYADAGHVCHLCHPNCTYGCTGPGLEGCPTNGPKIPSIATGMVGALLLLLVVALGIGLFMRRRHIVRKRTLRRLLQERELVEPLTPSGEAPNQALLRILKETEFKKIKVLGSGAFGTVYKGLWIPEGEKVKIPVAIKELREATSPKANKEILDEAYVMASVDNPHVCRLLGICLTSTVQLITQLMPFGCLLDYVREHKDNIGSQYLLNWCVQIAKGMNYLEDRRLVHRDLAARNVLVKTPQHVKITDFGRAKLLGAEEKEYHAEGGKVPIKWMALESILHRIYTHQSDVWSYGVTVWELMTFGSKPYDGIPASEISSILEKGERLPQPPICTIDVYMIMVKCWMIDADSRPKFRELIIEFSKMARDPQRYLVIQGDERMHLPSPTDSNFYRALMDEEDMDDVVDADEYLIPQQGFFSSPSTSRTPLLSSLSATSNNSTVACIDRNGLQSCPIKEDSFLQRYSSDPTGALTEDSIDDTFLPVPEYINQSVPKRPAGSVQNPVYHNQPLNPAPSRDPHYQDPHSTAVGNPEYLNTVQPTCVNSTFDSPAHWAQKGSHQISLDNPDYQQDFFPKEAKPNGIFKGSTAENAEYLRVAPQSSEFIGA

| pIC50 (EGFR L858R) | pIC50 (EGFR (d746-750)) | pIC50 [1] | Structure (SMILES) |
| --- | --- | --- | --- |
| ≥ 8.00 | ≥ 8.00 | ≥ 8.00 | CO[C@H]1CCN(c2cc(O[C@H](C)C3COC3)c3c(Nc4ccc5ncsc5c4)ncnc3c2)C1 [Example 197, N-(7-((S)-3-methoxypyrrolidin-1-yl)-5-((R)-1-(oxetan-3-yl)ethoxy)quinazolin-4-yl)benzo[d]thiazol-6-amine] |
| ≥ 8.00 | ≥ 8.00 | ≥ 8.00 | Cn1cc(-c2cc(OCC(=O)N3CCCCC3)c3c(Nc4ccc5ncsc5c4)ncnc3c2)cn1 [Example 272, 2-((4-(benzo[d]thiazol-6-ylamino)-7-(1-methyl-1H-pyrazol-4-yl)quinazolin-5-yl)oxy)-1-(piperidin-1-yl)ethan-1-one] |
| ≥ 8.00 | ≥ 8.00 | ≥ 8.00 | CCN1CC[C@H](Oc2cc(-c3cnn(C)c3)cc3ncnc(Nc4ccc5ncsc5c4)c23)C1=O (single isomer, unassigned) [Example 59, (S)-3-((4-(benzo[d]thiazol-6-ylamino)-7-(1-methyl-1H-pyrazol-4-yl)quinazolin-5-yl)oxy)-1-ethylpyrrolidin-2-one or (R)-3-((4-(benzo[d]thiazol-6-ylamino)-7-(1-methyl-1H-pyrazol-4-yl)quinazolin-5-yl)oxy)-1-ethylpyrrolidin-2-one] |
| ≥ 8.00 | ≥ 8.00 | 7.30 to 8.00 | C[C@@H]1OC[C@H]1Oc1cc(-c2cnn(C)c2)cc2ncnc(Nc3ccc4ncsc4c3)c12 (racemic) [Example 10, trans-N-(7-(1-methyl-1H-pyrazol-4-yl)-5-(((2S,3S)-2-methyloxetan-3-yl)oxy)quinazolin-4-yl)benzo[d]thiazol-6-amine] |
| < 7.30 | 7.30 to 8.00 | < 7.30 | COC[C@@H](C)Oc1cc(N2CCN(C)C[C@H]2C)cc2ncnc(Nc3ccc4ncsc4c3)c12 (single isomer, unassigned) [Example 211] |
| ≥ 8.00 | ≥ 8.00 | ≥ 8.00 | Cn1cc(-c2cc3ncnc(Nc4ccc5ncsc5c4F)c3cc2OC2CCOC2)cn1 (stereo not drawn) [Example 261, 7-fluoro-N-(7-(1-methyl-1H-pyrazol-4-yl)-6-((tetrahydrofuran-3-yl)oxy)quinazolin-4-yl)benzo[d]thiazol-6-amine] |
| ≥ 8.00 | ≥ 8.00 | ≥ 8.00 | C[C@H](Oc1cc(-c2cnn(C)c2)cc2ncnc(Nc3ccc4ncsc4c3)c12)C(=O)N1CCOCC1 [Example 284, (S)-2-((4-(benzo[d]thiazol-6-ylamino)-7-(1-methyl-1H-pyrazol-4-yl)quinazolin-5-yl)oxy)-1-morpholinopropan-1-one] |
| ≥ 8.00 | ≥ 8.00 | ≥ 8.00 | CN(C)C1CCC(Oc2cc(-c3cnn(C)c3)cc3ncnc(Nc4ccc5ncsc5c4)c23)CC1 (stereo not drawn) [Example 21, N-(5-((4-(dimethylamino)cyclohexyl)oxy)-7-(1-methyl-1H-pyrazol-4-yl)quinazolin-4-yl)benzo[d]thiazol-6-amine] |
| ≥ 8.00 | ≥ 8.00 | ≥ 8.00 | CC(C)N1CC[C@@H](Oc2cc(-c3cnn(C)c3)cc3ncnc(Nc4ccc5ncsc5c4)c23)C1=O (single isomer, unassigned) [Example 63] |
| 7.30 to 8.00 | ≥ 8.00 | ≥ 8.00 | COc1cn(C)nc1-c1cc(OC2CCN(C)CC2)c2c(Nc3ccc4ncsc4c3F)ncnc2c1 [Example 319, 7-fluoro-N-(7-(4-methoxy-1-methyl-1H-pyrazol-3-yl)-5-((1-methylpiperidin-4-yl)oxy)quinazolin-4-yl)benzo[d]thiazol-6-amine] |
| ≥ 8.00 | ≥ 8.00 | ≥ 8.00 | CCn1cc(-c2cc(OC3CCN(C4COC4)CC3)c3c(Nc4ccc5ncsc5c4)ncnc3c2)cn1 [Example 307, N-(7-(1-ethyl-1H-pyrazol-4-yl)-5-((1-(oxetan-3-yl)piperidin-4-yl)oxy)quinazolin-4-yl)benzo[d]thiazol-6-amine] |
| ≥ 8.00 | ≥ 8.00 | 7.30 to 8.00 | Cn1cc(-c2cc(OCC(=O)N3CC4(COC4)C3)c3c(Nc4ccc5ncsc5c4)ncnc3c2)cn1 [Example 270, 2-((4-(benzo[d]thiazol-6-ylamino)-7-(1-methyl-1H-pyrazol-4-yl)quinazolin-5-yl)oxy)-1-(2-oxa-6-azaspiro[3.3]heptan-6-yl)ethan-1-one] |
| ≥ 8.00 | ≥ 8.00 | ≥ 8.00 | CN(C)C[C@@H](Oc1cc(-c2cnn(C)c2)cc2ncnc(Nc3ccc4ncsc4c3)c12)C(F)F (single isomer, unassigned) [Example 151] |
| ≥ 8.00 | ≥ 8.00 | ≥ 8.00 | C[C@H]1COCC[C@@H]1Oc1cc(-c2cnn(C)c2)cc2ncnc(Nc3ccc4ncsc4c3)c12 (racemic) [Example 26, trans-racemic N-(7-(1-methyl-1H-pyrazol-4-yl)-5-(((3S,4S)-3-methyltetrahydro-2H-pyran-4-yl)oxy)quinazolin-4-yl)benzo[d]thiazol-6-amine] |
| ≥ 8.00 | ≥ 8.00 | ≥ 8.00 | CN(C)[C@H]1CC[C@@H]1Oc1cc(-c2cnn(C)c2)cc2ncnc(Nc3ccc4ncsc4c3)c12 (single isomer, unassigned) [Example 154] |
| ≥ 8.00 | ≥ 8.00 | ≥ 8.00 | C[C@@H](Oc1cc(-c2cnn(C)c2)cc2ncnc(Nc3ccc4ncsc4c3F)c12)C1(C)COC1 (single isomer, unassigned) [Example 86] |
| 7.30 to 8.00 | ≥ 8.00 | ≥ 8.00 | Cn1cc(-c2cc(O[C@H]3CCNC[C@H]3F)c3c(Nc4ccc5ncsc5c4)ncnc3c2)c(OC(F)F)n1 [Example 366, N-(7-(3-(difluoromethoxy)-1-methyl-1H-pyrazol-4-yl)-5-(((3R,4S)-3-fluoropiperidin-4-yl)oxy)quinazolin-4-yl)benzo[d]thiazol-6-amine] |
| 7.30 to 8.00 | ≥ 8.00 | 7.30 to 8.00 | Cn1cc(-c2cc(OCCN3CCC3)c3c(Nc4ccc5ncsc5c4)ncnc3c2)cn1 [Example 409, N-(5-(2-(azetidin-1-yl)ethoxy)-7-(1-methyl-1H-pyrazol-4-yl)quinazolin-4-yl)benzo[d]thiazol-6-amine] |
| ≥ 8.00 | ≥ 8.00 | 7.30 to 8.00 | C[C@@H]1CN(C)CCN1c1cc(O[C@H](C)C2COC2)c2c(Nc3ccc4ncsc4c3F)ncnc2c1 (single isomer, unassigned) [Example 106, N-(7-((R)-2,4-dimethylpiperazin-1-yl)-5-((R)-1-(oxetan-3-yl)ethoxy)quinazolin-4-yl)-7-fluorobenzo[d]thiazol-6-amine or N-(7-((R)-2,4-dimethylpiperazin-1-yl)-5-((S)-1-(oxetan-3-yl)ethoxy)quinazolin-4-yl)-7-fluorobenzo[d]thiazol-6-amine] |
| ≥ 8.00 | ≥ 8.00 | ≥ 8.00 | Cn1cc(-c2cc(OC3COC3)c3c(Nc4ccc5ncsc5c4)ncnc3c2)cn1 [Example 406, N-(7-(1-methyl-1H-pyrazol-4-yl)-5-(oxetan-3-yloxy)quinazolin-4-yl)benzo[d]thiazol-6-amine] |
| ≥ 8.00 | ≥ 8.00 | 7.30 to 8.00 | CC(C)Oc1cc(-c2cnn(C)c2)cc2ncnc(Nc3ccc4scnc4c3)c12 [Example 254, N-(5-isopropoxy-7-(1-methyl-1H-pyrazol-4-yl)quinazolin-4-yl)benzo[d]thiazol-5-amine] |
| 7.30 to 8.00 | ≥ 8.00 | < 7.30 | Cn1cc(-c2cc(O[C@H]3CNCC[C@@H]3O)c3c(Nc4ccc5ncsc5c4)ncnc3c2)cn1 (racemic) [Example A45, (3S,4S)-3-((4-(benzo[d]thiazol-6-ylamino)-7-(1-methyl-1H-pyrazol-4-yl)quinazolin-5-yl)oxy)piperidin-4-ol] |
| ≥ 8.00 | ≥ 8.00 | 7.30 to 8.00 | Cn1cc(-c2cc(O[C@H]3COC[C@@H]3O)c3c(Nc4ccc5ncsc5c4)ncnc3c2)cn1 (single isomer, unassigned) [Example A29] |
| 7.30 to 8.00 | ≥ 8.00 | < 7.30 | CN1CC[C@H](O)[C@@H](Oc2cc(-c3cnn(C)c3)cc3ncnc(Nc4ccc5ncsc5c4)c23)C1 (single isomer, unassigned) [Example A34] |
| ≥ 8.00 | ≥ 8.00 | ≥ 8.00 | Cn1cc(-c2cc(O[C@@H]3CCNC[C@H]3F)c3c(Nc4ccc5ncsc5c4F)ncnc3c2)cn1 [Example 348, 7-fluoro-N-(5-(((3R,4R)-3-fluoropiperidin-4-yl)oxy)-7-(1-methyl-1H-pyrazol-4-yl)quinazolin-4-yl)benzo[d]thiazol-6-amine] |
| ≥ 8.00 | ≥ 8.00 | ≥ 8.00 | Cn1cc(-c2cc(O[C@H]3CCNC[C@@H]3F)c3c(Nc4ccc5ncsc5c4)ncnc3c2)cn1 (single isomer, unassigned) [Example 346] |

| Structure (SMILES) | pIC50 (EGFR L858R) | pIC50 (EGFR (d746-750)) | pIC50 [1] |
| --- | --- | --- | --- |
| CN(C)[C@H]1CC[C@H]1Oc1cc(-c2cnn(C)c2)cc2ncnc(Nc3ccc4ncsc4c3)c12 (racemic) [Example A50, N-(5-((1R,2S)-2-(dimethylamino)cyclobutoxy)-7-(1-methyl-1H-pyrazol-4-yl)quinazolin-4-yl)benzo[d]thiazol-6-amine] | ≥ 8.00 | ≥ 8.00 | ≥ 8.00 |
